In patent US8993587B2, “Combination of syrosingopine and mitochondrial inhibitors for the treatment of cancer and immunosuppression” (Universitat Basel, priority 2011, dated 2015):
Counter-ions that a name gives are not always drawn. Like-named read-outs stand apart in the source and are kept apart here.

Legend:
[1] = system: mouse mast cell line 6.5; test: AlamarBlue cell proliferation assay, mouse mast cell line 6.5; type: cell-based
Method: (§1) AlamarBlue conversion cell proliferation assay. […] All data points were performed in tripliclate.

[2] = system: murine 6.5 cells (inner mitochondrial membrane potential); test: Mitochondrial membrane potential by TMRM fluorescence assay; type: cell-based, mouse; conditions: TMRM 100 nM 20 min, control peak 403, syrosingopine pre-incubation 4 h (highest amount), FCCP pre-treatment 1 h (FIG. 11)
Method: Murine 6.5 cells were treated with TMRM (panels 1-6), and in addition pre-incubated with FCCP (panel 2), syrosingopine at 0.1 μM (panel 3), 0.5 μM (panel 4), 2 μM (panel 5) or at 5 μM (panel 6) and fluorescence intensity was measured. Thin lines: fluorescence intensity of control cells or FCCP-treated cells (panel 2). Heavy lines indicate cells pre-incubated additionally with syrosingopine (panels 3-6). X-axis indicates fluorescence intensity, Y-axis indicates relative cell numbers.
Murine 6.5 cells were treated for 20 min with the potentiometric fluorescent dye TMRM (tetramethylrhodamine methyl ester, AbD Serotec, 100 nM) and the fluorescence intensity was measured at 575 nm emission after excitation at 488 nm using a flow cytometer (CellLabQuanta, Beckman Coulter). This dye accumulates in the mitochondrial matrix when the inner membrane potential is more positive outside due to the extrusion of protons. […] The effect of syrosingopine was assessed by pre-incubating cells with increasing concentrations of syrosingopine for 4 h as indicated, followed by TMRM staining.

[3] = system: mouse mast cell line 6.5
[4] = system: cancer test cell lines; test: Interaction of rauwolfia-related compounds with metformin; type: cell-based
Text: 6.5 cells show many features of oncogenic transformation such as loss of growth-factor (IL3) dependence and signaling pathway addiction. […]. These cells display exquisite sensitivity to many clinical drugs. […].

[5] = system: OPM2 cells; test: Apoptosis assay (annexin V / propidium iodide FACS), OPM2; type: cell-based, human; conditions: 5 μM syrosingopine, 2 mM metformin, singly or combined, 3 days (FIG. 3)
Method: (§2) OPM2 and RPM18226 cells were seeded at a density of 100,000 cells/5 ml medium with addition of compounds. […] RPM18226: 2 μM syrosingopine (S), 1 mM metformin (M). […] Annexin V is an apoptotic marker and was detected using a FITC-coupled antibody on the FL1-channel. Propidium iodide (PI) exclusion staining for vital cells was detected simultaneously on the FL3-channel. For each measurement, the PI and annexin V negative cells represent the viable cell population (white bars). Early apoptotic cells are PI-negative, annexin V-positive (hatched bars) and late apoptotic cells are PI-positive, annexin V-positive (black bars). Bars are plotted on the Y-axis as a percentage of the total cell population.
(§3) Apoptosis was determined by Annexin V-FITC (Invitrogen) and propidium iodide counter-staining, and cells were analysed by FACS to distinguish between viable/early apoptotic/late apoptotic cell sub-populations. Cells were seeded at a density of 100,000 cells/5 ml medium with addition of compounds as indicated. 500 μl of culture was harvested after 3 days and the cells were washed and stained with PI/Annexin V before FACs analysis.

[6] = system: K562 cells; test: AlamarBlue cell proliferation assay, K562; type: cell-based, human; conditions: syrosingopine titration, metformin 5 mM, 3 days (FIG. 1E)
Method: as §1

[7] = system: Jurkat cells; test: AlamarBlue cell proliferation assay, Jurkat; type: cell-based, human; conditions: syrosingopine titration, metformin 5 mM, 3 days (FIG. 1D)
Method: as §1

[8] = system: RPMI8226 cells; test: Apoptosis assay (annexin V / propidium iodide FACS), RPMI8226; type: cell-based, human; conditions: 2 μM syrosingopine, 1 mM metformin, singly or combined, 3 days (FIG. 3)
Method: as §2, §3

[9] = system: RPMI8226 cells; test: AlamarBlue cell proliferation assay, RPMI8226; type: cell-based, human; conditions: syrosingopine titration, metformin 5 mM, 3 days
Method: as §1

[10] = system: 6.5 cell tumors in DBA mice; conditions: mouse, in vivo
Method: Drug treatment commenced when tumors reached 100 mm^2 in size. Mice were separated into treatment groups and injected intra-peritoneally with PBS (horizontal bars), syrosingopine (S, filled diamonds, 2 mg/kg body weight), metformin (M, filled triangles, 250 mg/kg body weight) and metformin plus syrosingopine (S+M, crossed squares) daily for 15 days. Mice were sacrificed when tumor size became excessive (day 15) and tumors were dissected for measurement. (A) Chart showing tumor area (in mm^2) measured over the course of the treatment, d=days. (B) Mean body weight (g) of the mice at the time of sacrifice. Figures (n) above each bar indicate the number of mice per treatment group.
4×10^56.5 cells were injected in 150 μl of PBS into the flanks of immuno-compatible DBA mice. Tumor progression was monitored and treatment was started when tumor area reached 100 mm^2 in size. Mice were injected intra-peritoneally daily with metformin (250 mg/kg body weight), syrosingopine (2 mg/kg body weight) or combined for 15 days before being sacrificed for tumor tissue measurements.

[11] = system: OPM2 cells; test: AlamarBlue cell proliferation assay, OPM2; type: cell-based, human; conditions: for growth inhibition, combined versus each compound singly: syrosingopine titration, metformin 5 mM, 3 days (FIG. 1B)
Method: as §1

[12] = system: HL60 cells; type: cell-based, human; conditions: oligomycin at a concentration below 1 nM, 3 days (FIG. 10B)
Method: as §1

[13] = system: human peripheral blood leukocytes; test: Phytohaemagglutinin-stimulated T cell proliferation; type: cell-based; conditions: PHA 10 μg/ml; day 3; syrosingopine titration with or without metformin 4 mM (FIG. 7, right)
Method: Human peripheral blood leukocytes were cultured in presence or absence of phytohaemagglutinin.
Normal human buffy coat cells were obtained from a local blood donation center in accordance with the ethical guidelines. 80 ml of blood was diluted with 200 ml of Iscove's medium and overlayed on a Ficoll gradient. The gradient was centrifuged at 1400×g for 5 minutes to separate the leukocyte fraction from erythrocytes. Cells were plated on coated tissue culture dishes for 1 hour to remove adherent cells, and the remaining suspension cells were collected by centrifugation and counted with a haemocytometer. 50,000 cells were seeded per well in 96-well dishes and compounds were added according to the various treatment regimes to a final medium volume of 150 μl. For stimulation, phytohemagglutinin was added to a final concentration of 10 μg/ml. At day 3, proliferation was determined by AlamarBlue assay.

[14] = 6.5 cells, agent at fixed, non- or minimally toxic concentration (FIG. 8) with increasing syrosingopine, 3 days

Compound: N#CC(C#N)=NNc1ccc(OC(F)(F)F)cc1 [FCCP, Carbonyl cyanide-p-trifluoromethoxyphenylhydrazone]
- synergistic killing with syrosingopine [1]: induced synergistic killing
- TMRM fluorescence peak [2]: 42 arbitrary units

Compound: O=C(CC(=O)C(F)(F)F)c1cccs1 [TTFA, 2-Thenoyltrifluoroacetone]
- synergistic killing with syrosingopine [1, 14]: Synergistic killing

Compound: N#CC(=C(/N)Sc1ccccc1N)/C(C#N)=C(\N)Sc1ccccc1N [U0126]
- sensitivity of 6.5 cells to inhibitor [3]: sensitive to nanomolar concentrations

Compound: COC(=O)C1=CO[C@@H](C)[C@H]2CN3CCc4c([nH]c5ccccc45)[C@@H]3C[C@H]12 [ajmalicine]
- interaction with metformin [4]: do not show significant interaction

Compound: CCCCCC[C@H]1C(=O)O[C@H](C)[C@H](NC(=O)c2cccc(NC=O)c2O)C(=O)O[C@@H](C)[C@@H]1OC(=O)CC(C)C [antimycin A, Antimycin A]
- synergistic killing with syrosingopine [1]: Synergistic killing

Compound: COC(=O)[C@H]1[C@H]2C[C@H]3c4[nH]c5ccccc5c4CCN3C[C@@H]2CC[C@@H]1O.Cl [corynanthine HCl]
- interaction with metformin [4]: do not show significant interaction

Compound: CN(C)C(=N)NC(=N)N [metformin, 3-(diaminomethylidene)-1,1-dimethylguanidine hydrochloride]
- apoptotic induction (annexin V / PI) [5]: No apoptotic induction
- growth inhibition, combined versus each compound singly [6]: only a marginal effect
- inhibition at 5000 µM ([1]; Mus musculus, Mast cell, 72 h, 6.5 cells, metformin alone at 5 mM, 3 days (FIG. 1A), read-out: inhibition of growth): 20%
- growth inhibition, combined versus each compound singly [7]: only a marginal effect
- apoptotic induction (annexin V / PI) [8]: No apoptotic induction
- growth inhibition, combined versus each compound singly [9]: only a marginal effect
- body weight at sacrifice [10]: no significant difference in body weight
- growth inhibition, combined versus each compound singly ([11]; OPM2): only a marginal effect

Compound: CC[C@@H]1/C=C/C=C/C[C@H](C)C(O)[C@](C)(O)C(=O)[C@H](C)[C@@H](O)[C@H](C)C(=O)[C@H](C)[C@@H](O)[C@H](C)/C=C/C(=O)O[C@H]2[C@@H](C)[C@@H](CC1)O[C@@]1(CC[C@@H](C)[C@@H](C[C@H](C)O)O1)[C@@H]2C (stereo partly drawn) [oligomycin, Oligomycin]
- toxicity of the mitochondrial inhibitor alone ([1]; 6.5 cells, absence of syrosingopine, concentrations employed for synergistic killing, 3 days (FIG. 9)): without toxic effect
- synergistic killing with syrosingopine [1, 14]: induced synergistic cell killing
- killing in combination with syrosingopine [12]: kills human cancer lines
- killing in combination with syrosingopine ([11]; OPM2, oligomycin at a concentration below 1 nM, 3 days (FIG. 10C)): kills human cancer lines

Compound: N=C(N)NC(=N)NCCc1ccccc1 [phenformin, 1-(diaminomethylidene)-2-(2-phenylethyl)guanidine]
- growth inhibition, phenformin alone ([1]; 6.5 cells, concentrations up to 10 μM, 3 days (FIG. 6, left)): no growth inhibition
- synergy with syrosingopine ([1]; 6.5 cells, phenformin 10 μM combined with increasing concentrations of syrosingopine, 3 days (FIG. 6, right)): strong synergistic effect

Compound: COC(=O)[C@H]1[C@H]2C[C@H]3c4[nH]c5ccccc5c4CCN3C[C@H]2CC[C@@H]1O [rauwolscine HCl]
- interaction with metformin [4]: do not show significant interaction

Compound: COC(=O)[C@H]1[C@H]2C[C@@H]3c4[nH]c5cc(OC)ccc5c4CCN3C[C@H]2C[C@@H](OC(=O)/C=C/c2cc(OC)c(OC)c(OC)c2)[C@@H]1OC [rescinnnamine]
- interaction with metformin [4]: do not show significant interaction

Compound: COC(=O)[C@H]1[C@H]2C[C@@H]3c4[nH]c5cc(OC)ccc5c4CCN3C[C@H]2C[C@@H](OC(=O)c2cc(OC)c(OC)c(OC)c2)[C@@H]1OC [reserpine]
- interaction with metformin ([1]; 6.5 cells, reserpine over a range of concentrations, metformin 5 mM (FIG. 4)): No interaction
- interaction with metformin [4]: do not show significant interaction
- interaction with metformin ([11]; OPM2 cells, reserpine over a range of concentrations, metformin 5 mM (FIG. 4)): No interaction

Compound: COc1ccc2c3c([nH]c2c1)[C@H]1C[C@H]2[C@H](C[C@@H](O)[C@H](OC)[C@H]2C(=O)O)CN1CC3 [reserpinnic acid]
- interaction with metformin [4]: do not show significant interaction

Compound: O=C([O-])CC(=O)[O-].[Na+].[Na+] [sodium malonate, Sodium malonate]
- synergistic killing with syrosingopine [1, 14]: Synergistic killing

Compound: CCOC(=O)Oc1c(OC)cc(C(=O)O[C@@H]2C[C@@H]3CN4CCc5c([nH]c6cc(OC)ccc56)[C@H]4C[C@@H]3[C@H](C(=O)OC)[C@H]2OC)cc1OC [syrosingopine]
- apoptotic induction (annexin V / PI) [5]: No apoptotic induction
- growth inhibition, combined versus each compound singly [6]: only a marginal effect
- inhibition of growth, syrosingopine alone ([1]; 6.5 cells, syrosingopine titration without metformin, 3 days (FIG. 1A)): virtually non-inhibitory
- growth inhibition, combined versus each compound singly [7]: only a marginal effect
- apoptotic induction (annexin V / PI) [8]: No apoptotic induction
- growth inhibition, combined versus each compound singly [9]: only a marginal effect
- signs of overt toxicity ([10]; DBA): no significant difference in body weight between the treatment groups (FIG. 5B) or any signs of overt toxicity
- body weight at sacrifice [10]: no significant difference in body weight
- inhibition of PHA-stimulated proliferation [13]: considerably less so
- TMRM fluorescence peak [2]: 955 arbitrary units
- growth inhibition, combined versus each compound singly ([11]; OPM2): only a marginal effect

Compound: COC(=O)[C@@H]1[C@H]2C[C@H]3c4[nH]c5ccccc5c4CCN3C[C@@H]2CC[C@@H]1O [yohimbine HCl]
- interaction with metformin [4]: do not show significant interaction

Compound: O=C(O)[C@@H]1[C@H]2C[C@H]3c4[nH]c5ccccc5c4CCN3C[C@@H]2CC[C@@H]1O [yohimbinic acid]
- interaction with metformin [4]: do not show significant interaction

Compound: Stavudine
- synergistic killing with syrosingopine [1, 14]: induced synergistic killing
